From patent US9359367B2, “Tetrahydroquinazolinone derivatives as PARP inhibitors” (Lupin Limited, priority 2012, dated 2016) come the findings set out here.

The IC50 is the concentration at which inhibition is half-maximal.

In the assay the target is T1, PARP1 (Homo sapiens, UniProt P09874).
T1 construct: purchased BPS Bioscience
T1 sequence (P09874 whole entry): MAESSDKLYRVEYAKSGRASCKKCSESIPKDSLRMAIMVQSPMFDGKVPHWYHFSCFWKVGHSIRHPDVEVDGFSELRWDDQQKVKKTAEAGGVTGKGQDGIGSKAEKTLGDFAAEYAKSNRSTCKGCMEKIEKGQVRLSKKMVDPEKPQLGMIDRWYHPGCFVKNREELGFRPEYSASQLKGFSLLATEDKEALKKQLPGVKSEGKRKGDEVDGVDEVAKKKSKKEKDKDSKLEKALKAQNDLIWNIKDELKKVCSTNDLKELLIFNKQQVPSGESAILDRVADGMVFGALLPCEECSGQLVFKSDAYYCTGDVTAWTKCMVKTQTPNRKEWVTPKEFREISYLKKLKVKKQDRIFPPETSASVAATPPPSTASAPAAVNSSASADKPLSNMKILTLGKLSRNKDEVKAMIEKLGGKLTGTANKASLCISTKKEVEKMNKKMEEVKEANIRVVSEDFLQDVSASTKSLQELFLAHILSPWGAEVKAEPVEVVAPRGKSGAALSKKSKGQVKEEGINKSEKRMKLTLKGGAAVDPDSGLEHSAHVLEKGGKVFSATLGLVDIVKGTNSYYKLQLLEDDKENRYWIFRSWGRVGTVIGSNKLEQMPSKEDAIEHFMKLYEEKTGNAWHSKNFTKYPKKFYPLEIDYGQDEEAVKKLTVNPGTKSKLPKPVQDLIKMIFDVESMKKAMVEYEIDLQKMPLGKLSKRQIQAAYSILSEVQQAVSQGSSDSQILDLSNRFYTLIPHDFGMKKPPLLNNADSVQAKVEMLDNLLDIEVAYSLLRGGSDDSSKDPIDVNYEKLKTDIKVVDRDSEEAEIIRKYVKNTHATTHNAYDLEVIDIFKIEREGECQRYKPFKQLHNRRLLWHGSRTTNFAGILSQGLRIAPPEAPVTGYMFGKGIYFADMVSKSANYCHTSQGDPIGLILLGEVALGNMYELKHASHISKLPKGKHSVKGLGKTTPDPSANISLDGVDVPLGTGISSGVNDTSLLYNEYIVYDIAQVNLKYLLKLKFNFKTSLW
Put plainly: PARP1 Biochemical Assay (BPS Bioscience kit, chemiluminescence). To be noted: histone-coated plate, biotinilated NAD+, 25° C. for 60 min, luminescence, read-out: PARP 1 inhibition IC50. On the procedure:
The assay was performed using BPS Bioscience kit. The 96-well strip plate was coated with 50 μl of histone mixture and incubated at 4° C. overnight. Next day the wells were blocked by adding 100 μl of blocking buffer. The plate was washed and 25 μl of appropriate concentration of PARP1 (25-75 ng/well) was added in all the Test and Positive control wells. In Negative control wells enzyme was replaced with 25 μl of water. To it 5 μl each of 10×PARP assay buffer and activated DNA was added in all the wells (Test, Positive and Negative control wells). 10× concentration of test compounds were prepared and 5 μl test compounds were added respective wells. Reaction volume was made up to 45 μl by adding water to all the wells. Finally, 5 μl of 10×PARP assay mixture containing biotinilated NAD^+ was added in each well and the plate was incubated at ambient temperature (25° C.) for 60 min. After washing the plate 50 μl of Streptavidin-HRP was added in each well and incubated the plate at RT for 30 min. The plate was washed and the luminescence was read in PHERAStar plate reader after adding 100 μl of chemiluminescent substrate.
PARP inhibition was calculated using the following formula: % PARP inhibition=100−[(RLU test compound treated sample−RLU negative control)/(RLU Positive control−RLU negative control)×100]
IC50 values were calculated by plotting % inhibition against the respective concentrations of test compounds using GraphPad Prism 5.
As to `O=c1[nH]c(C2=C[C@@H](N3CCC(c4ccc(Cl)cc4)CC3)CC2)nc2c1CC1(CC2)CC1` [Compound 55, (S)-2′-(3-(4-(4-chlorophenyl)piperidin-1-yl)cyclopent-1-en-1-yl)-7′,8′-dihydro-3′H-spiro[cyclopropane-1,6′-quinazolin]-4′(5′H)-one], the concentration for half-maximal inhibition (IC50) fell in the range of 501 to 5000 nM.

Consider `Cc1cc(N2CCN([C@H]3C=C(c4nc5c(c(=O)[nH]4)CC4(CC5)CC4)CC3)CC2)ncc1F` [Compound 137, (R)-2′-(3-(4-(5-fluoro-4-methylpyridin-2-yl)piperazin-1-yl)cyclopent-1-en-1-yl)-7′,8′-dihydro-3′H-spiro[cyclopropane-1,6′-quinazolin]-4′(5′H)-one], for which the IC50 lay in the range of 1 to 500 nM.

On to `COc1cc(F)ccc1N1CCN([C@H]2C=C(c3nc4c(c(=O)[nH]3)CC3(CC4)CC3)CC2)CC1` [Compound 133, (R)-2′-(3-(4-(4-fluoro-2-methoxyphenyl)piperazin-1-yl)cyclopent-1-en-1-yl)-7′,8′-dihydro-3′H-spiro[cyclopropane-1,6′-quinazolin]-4′(5′H)-one], for which the IC50 fell in the range of 1 to 500 nM.

In the case of `O=c1[nH]c(C2=C[C@H](N3CCN(c4cc(F)ccc4F)CC3)CC2)nc2c1CC1(CC2)CC1` [Compound 106, (R)-2′-(3-(4-(2,5-difluorophenyl)piperazin-1-yl)cyclopent-1-en-1-yl)-7′,8′-dihydro-3′H-spiro[cyclopropane-1,6′-quinazolin]-4′(5′H)-one], the IC50 is 1 to 500 nM.

With `CNC(=O)c1ccnc(N2CCN([C@H]3C=C(c4nc5c(c(=O)[nH]4)CC4(CC5)CC4)CC3)CC2)c1` [Compound 130, (R)—N-methyl-2-(4-(3-(4′-oxo-4′,5′,7′,8′-tetrahydro-3′H-spiro[cyclopropane-1,6′-quinazolin]-2′-yl)cyclopent-2-en-1-yl)piperazin-1-yl)isonicotinamide], the IC50 was in the range of 501 to 5000 nM.

On to `Cc1cccc(N2CCN([C@H]3C=C(c4nc5c(c(=O)[nH]4)CC4(CC5)CC4)CC3)CC2)n1` [Compound 145, (R)-2′-(3-(4-(6-methylpyridin-2-yl)piperazin-1-yl)cyclopent-1-en-1-yl)-7′,8′-dihydro-3′H-spiro[cyclopropane-1,6′-quinazolin]-4′(5′H)-one], for which the IC50 is 1 to 500 nM.

Turning to `N#Cc1ccc(N2CCN([C@H]3C=C(c4nc5c(c(=O)[nH]4)CC4(CC5)CC4)CC3)CC2)cc1F` [Compound 127, (R)-2-fluoro-4-(4-(3-(4′-oxo-4′,5′,7′,8′-tetrahydro-3′H-spiro[cyclopropane-1,6′-quinazolin]-2′-yl)cyclopent-2-en-1-yl)piperazin-1-yl)benzonitrile], the half-inhibitory concentration (IC50) was in the range of 1 to 500 nM.

In the case of `Cc1cc(N2CCN([C@H]3C=C(c4nc5c(c(=O)[nH]4)CC4(CC5)CC4)CC3)CC2)ncc1Cl` [Compound 141, (R)-2′-(3-(4-(5-chloro-4-methylpyridin-2-yl)piperazin-1-yl)cyclopent-1-en-1-yl)-7′,8′-dihydro-3′H-spiro[cyclopropane-1,6′-quinazolin]-4′(5′H)-one], the IC50 is 1 to 500 nM.

For the molecule `CNC(=O)c1ccc(N2CCN([C@H]3C=C(c4nc5c(c(=O)[nH]4)CC4(CC5)CC4)CC3)CC2)cc1C` [Compound 98, (R)—N, 2-dimethyl-4-(4-(3-(4′-oxo-4′,5′,7′,8′-tetrahydro-3′H-spiro[cyclopropane-1,6′-quinazolin]-2′-yl)cyclopent-2-en-1-yl)piperazin-1-yl)benzamide], the IC50 is 1 to 500 nM.

On to `O=c1[nH]c(C2=C[C@H](N3CCN(c4ccc(F)cc4)CC3)CC2)nc2c1CC1(CC2)CC1` [Compound 42, (R)-2′-(3-(4-(4-fluorophenyl)piperazin-1-yl)cyclopent-1-en-1-yl)-7′,8′-dihydro-3′H-spiro[cyclopropane-1,6′-quinazolin]-4′(5′H)-one], for which the IC50 was in the range of 1 to 500 nM.

For the molecule `Cc1ccc(F)cc1N1CCN([C@H]2C=C(c3nc4c(c(=O)[nH]3)CC3(CC4)CC3)CC2)CC1` [Compound 123, (R)-2′-(3-(4-(5-fluoro-2-methylphenyl)piperazin-1-yl)cyclopent-1-en-1-yl)-7′,8′-dihydro-3′H-spiro[cyclopropane-1,6′-quinazolin]-4′(5′H)-one], the IC50 lay in the range of 1 to 500 nM.
